Results taken from patent US3980779A, “3-Amino-1,2,4-benzotriazine-1,4-di-N-oxide compositions and method of using same” (Bayer Aktiengesellschaft, priority 1972, dated 1976).
Values after ≈ are worked out from the molar mass of the structure shown. Read-outs that look alike come from different tables or passages of the source.

Experiments:
E. coli C 165 = assay: MIC plate test; type: cell-based, Escherichia coli; settings: 37°C, 24 hours
Description: (§1) The antimicrobial activity of these compounds can be conveniently observe in in vitro and in vivo models. For example, their minimum inhibitory concentration (MIC) can be determined in the plate test on a complete nutrient base of the following composition: 10 g of proteose-peptone, 10 g of veal infusion, 2 g of dextrose, 3 g of sodium chloride, 2 g of disodium phosphate, 1 g of sodium acetate, 0.01 g of adenine sulfate, 0.01 g of guanine hydrochloride, 0.01 g of uracil, 0.01 g of xantine, 12 g of agar-agar and 1 liter of water. With an incubation temperature of 37°C and an incubation time of 24 hours, the following typical values can be observed: […]

E. coli A 261 = assay: MIC plate test; type: cell-based, Escherichia coli; settings: 37°C, 24 hours
Description: as §1

Klebsiella 8085 = assay: MIC plate test; type: cell-based; settings: nutrient medium, 37°C, 24 hours
Description: as §1

Pseudomonas aeruginosa W = assay: MIC plate test; type: cell-based; settings: nutrient medium, 37°C, 24 hours
Description: as §1

[1] = test system: Staphylococcus aureus 133; assay: MIC plate test; type: cell-based; settings: nutrient medium, 37°C, 24 hours
Description: as §1

[2] = test system: Pseudomonas aeruginosa BONN; assay: MIC plate test; type: cell-based; settings: nutrient medium, 37°C, 24 hours
Description: as §1

Streptococcus pyogenes W = assay: MIC plate test; type: cell-based; settings: nutrient medium, 37°C, 24 hours
Description: as §1

Klebsiella 63 = assay: MIC plate test; type: cell-based; settings: nutrient medium, 37°C, 24 hours
Description: as §1

Proteus vulgaris 1017 = assay: MIC plate test; type: cell-based; settings: nutrient medium, 37°C, 24 hours
Description: as §1

E.coli C 165 = assay: in vivo infection of white mice, subcutaneous administration; settings: 15 minutes before intraperitoneal infection, 24 hours later
Description: (§2) The above in vitro data are confirmed in in vivo infections.

[3] = test system: Staphylococcus aureus 133; assay: as above; settings: 15 minutes before intraperitoneal infection, 24 hours later
Description: as §2

[4] = growth promoting activity and fodder utilisation in chicken; type: in vivo; settings: 10 PPM in fodder
Protocol: The growth promoting activity of the new compounds and their effectiveness in improving the fodder utilisation may be illustrated by the following data:
Test animals : chicken (kept in cages, with complete fodder and water ad libitum)
The active ingredient is mixed in a finely divided form to the fodder according to customary methods. The tests were performed with 12 animals in each tested group.
Active ingredient: compound of Example 4
Concentration of the active ingredient in the fodder: […]

Nc1n[n+]([O-])c2ccccc2[n+]1[O-] [Compound A, 3-amino-1,2,4-benzotriazine-1,4-di-N-oxide]
MIC (E. coli C 165; Escherichia coli, C165, nutrient medium, read-out: MIC): 4 µg/mL (≈ 22.5 µM) | MIC (E. coli A 261; Escherichia coli, A261, nutrient medium, read-out: MIC): 4 µg/mL (≈ 22.5 µM) | MIC (Klebsiella 8085; read-out: MIC): 2 µg/mL (≈ 11.2 µM) | MIC (Pseudomonas aeruginosa W; read-out: MIC): 64 µg/mL (≈ 359 µM) | MIC ([1]; read-out: MIC): 16 µg/mL (≈ 89.8 µM) | MIC ([2]; read-out: MIC): 8 µg/mL (≈ 44.9 µM) | MIC (Streptococcus pyogenes W; read-out: MIC): 32 µg/mL (≈ 180 µM) | MIC (Klebsiella 63; read-out: MIC): 4 µg/mL (≈ 22.5 µM) | MIC (Proteus vulgaris 1017; read-out: MIC): 2 µg/mL (≈ 11.2 µM) | ED50 (E.coli C 165; Escherichia coli, C165, sc, read-out: ED50): 20 mg/kg

isomeric mixture of 6-chloro- and 7-chloro-3-amino-1,2,4-benzotriazine-1,4-di-N-oxide [Compound B]
MIC (E. coli C 165; nutrient medium): 8 µg/mL | MIC (E. coli A 261; nutrient medium): 8 µg/mL | MIC (Klebsiella 8085): 1 µg/mL | MIC (Pseudomonas aeruginosa W): 128 µg/mL | MIC [1]: 8 µg/mL | MIC [2]: 128 µg/mL | MIC (Streptococcus pyogenes W): 8 µg/mL | MIC (Klebsiella 63): 8 µg/mL | MIC (Proteus vulgaris 1017): 4 µg/mL | ED50 [3]: 250 mg/kg

isomeric mixture of 6-methoxy and 7-methoxy-3-amino-1,2,4-benzotriazine-1,4-di-N-oxide [Compound C]
MIC (E. coli C 165; nutrient medium): 2 µg/mL | MIC (E. coli A 261; nutrient medium): 2 µg/mL | MIC (Klebsiella 8085): 1 µg/mL | MIC (Pseudomonas aeruginosa W): 64 µg/mL | MIC [1]: 4 µg/mL | MIC [2]: 32 µg/mL | MIC (Streptococcus pyogenes W): 4 µg/mL | MIC (Klebsiella 63): 2 µg/mL | MIC (Proteus vulgaris 1017): 1 µg/mL | ED50 (E.coli C 165): 25 mg/kg | ED50 [3]: 40 mg/kg | Consumption of fodder in relation to the control group ([4]; week 0): 100% | Weight increase in relation to the control group ([4]; week 0): 100% | weight increase (all animals) ([4]; week 0): 75 gram | Consumption of fodder in relation to the control group ([4]; week 1): 85.7% | Weight increase in relation to the control group ([4]; week 1): 102.8% | weight increase (all animals) ([4]; week 1): 148.4 gram | Consumption of fodder in relation to the control group ([4]; week 2): 90.4% | Weight increase in relation to the control group ([4]; week 2): 109.0% | weight increase (all animals) ([4]; week 2): 276.7 gram | Consumption of fodder in relation to the control group ([4]; week 3): 93.4% | Weight increase in relation to the control group ([4]; week 3): 105.8% | weight increase (all animals) ([4]; week 3): 475.0 gram | Consumption of fodder in relation to the control group ([4]; week 4): 98.5% | Weight increase in relation to the control group ([4]; week 4): 110.4% | weight increase (all animals) ([4]; week 4): 761.8 gram | Consumption of fodder in relation to the control group ([4]; week 5): 101.1% | Weight increase in relation to the control group ([4]; week 5): 106.4% | weight increase (all animals) ([4]; week 5): 1019.1 gram | Consumption of fodder in relation to the control group ([4]; week 6): 92.2% | Weight increase in relation to the control group ([4]; week 6): 106.0% | weight increase (all animals) ([4]; week 6): 1296.4 gram
